The source of these data is the supplement of paper PMC10307832.

Holding throughout (assay): relative viability (nuclei count vs DMSO), 5 days (fraction); higher = more cells survive
Compound in the assay “XMD14-99 + Dasatinib”: CN1CCN(CC1)C2=CC(=C(C=C2)NC3=NC(=C(S3)C(=O)C4=C(C=CC=C4Cl)Cl)N)OC [XMD14-99] + Cc1nc(Nc2ncc(C(=O)Nc3c(C)cccc3Cl)s2)cc(N2CCN(CCO)CC2)n1 [Dasatinib] (partner 0.075 µM)
In a few lines: (§1)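 The day after seeding in 1536-well plates, lung cancer cell lines were treated by pin tool with a single drug, or with a fixed anchor-drug dose together with five library-drug doses (not always all listed) in √10 steps. After 5 days, a combined fix-and-stain solution (final 0.05% Triton X-100, 1% formaldehyde, 1 ug/ml Hoechst) was added. Nuclei counted on 4× images gave relative viability as treated counts over vehicle counts, reported as the median of duplicate plates.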

Compound in the assay “XMD14-99 + Navitoclax”: CN1CCN(CC1)C2=CC(=C(C=C2)NC3=NC(=C(S3)C(=O)C4=C(C=CC=C4Cl)Cl)N)OC [XMD14-99] + CC1(C)CCC(c2ccc(Cl)cc2)=C(CN2CCN(c3ccc(C(=O)NS(=O)(=O)c4ccc(N[C@H](CCN5CCOCC5)CSc5ccccc5)c(S(=O)(=O)C(F)(F)F)c4)cc3)CC2)C1 [Navitoclax] (partner 0.5 µM)
In a few lines: as §1

Compound in the assay “XMD14-99 + Linsitinib”: CN1CCN(CC1)C2=CC(=C(C=C2)NC3=NC(=C(S3)C(=O)C4=C(C=CC=C4Cl)Cl)N)OC [XMD14-99] + C[C@]1(O)C[C@@H](c2nc(-c3ccc4ccc(-c5ccccc5)nc4c3)c3c(N)nccn32)C1 [Linsitinib] (partner 1 µM)
The essentials: as §1

Compound in the assay “XMD14-99 + Palbociclib”: CN1CCN(CC1)C2=CC(=C(C=C2)NC3=NC(=C(S3)C(=O)C4=C(C=CC=C4Cl)Cl)N)OC [XMD14-99] + CC(=O)c1c(C)c2cnc(Nc3ccc(N4CCNCC4)cn3)nc2n(C2CCCC2)c1=O [Palbociclib] (partner 0.5 µM)
In a few lines: as §1

Compound in the assay “XMD14-99 + Trametinib”: CN1CCN(CC1)C2=CC(=C(C=C2)NC3=NC(=C(S3)C(=O)C4=C(C=CC=C4Cl)Cl)N)OC [XMD14-99] + CC(=O)Nc1cccc(-n2c(=O)n(C3CC3)c(=O)c3c(Nc4ccc(I)cc4F)n(C)c(=O)c(C)c32)c1 [Trametinib] (partner 0.02 µM)
In a few lines: as §1

Turning to COR-L 105, the relative viability with XMD14-99 + Dasatinib (first compound 0.08 µM) stood at 0.345; with XMD14-99 + Dasatinib (first compound 0.8 µM), 0.388; with XMD14-99 + Dasatinib (first compound 2.53 µM), 0.255; in the assay with XMD14-99 + Dasatinib (first compound 8 µM), 0.281; in the assay with XMD14-99 + Navitoclax (first compound 0.08 µM) it was 0.776; with XMD14-99 + Navitoclax (first compound 0.8 µM), 0.724. In addition, the relative viability is 0.842 with XMD14-99 + Navitoclax (first compound 2.53 µM); 0.767 with XMD14-99 + Navitoclax (first compound 8 µM); 0.924 in the assay with XMD14-99 + Linsitinib (first compound 0.08 µM); 0.665 with XMD14-99 + Linsitinib (first compound 0.8 µM); 0.879 with XMD14-99 + Linsitinib (first compound 2.53 µM); 0.703 in the assay with XMD14-99 + Linsitinib (first compound 8 µM). In addition, the relative viability was determined as 0.402 with XMD14-99 + Palbociclib (first compound 0.08 µM); 0.418 with XMD14-99 + Palbociclib (first compound 0.8 µM); 0.433 with XMD14-99 + Palbociclib (first compound 2.53 µM); 0.344 in the assay with XMD14-99 + Palbociclib (first compound 8 µM); 0.407 with XMD14-99 + Trametinib (first compound 0.08 µM); 0.493 with XMD14-99 + Trametinib (first compound 0.8 µM). In addition, the relative viability with XMD14-99 + Trametinib (first compound 2.53 µM) was found to be 0.432; with XMD14-99 + Trametinib (first compound 8 µM), 0.431.

Regarding Calu-6, the relative viability in the assay with XMD14-99 + Navitoclax (first compound 0.08 µM) stood at 0.772; with XMD14-99 + Navitoclax (first compound 0.8 µM), 0.802; with XMD14-99 + Navitoclax (first compound 2.53 µM), 0.726; with XMD14-99 + Navitoclax (first compound 8 µM), 0.473; with XMD14-99 + Linsitinib (first compound 0.08 µM), 0.918; with XMD14-99 + Linsitinib (first compound 0.8 µM), 0.918. Further, the relative viability is 0.883 with XMD14-99 + Linsitinib (first compound 2.53 µM) and 0.732 in the assay with XMD14-99 + Linsitinib (first compound 8 µM).

ChaGo-K-1: the relative viability came to 0.564 with XMD14-99 + Dasatinib (first compound 0.08 µM); 0.6 with XMD14-99 + Dasatinib (first compound 0.8 µM); 0.51 with XMD14-99 + Dasatinib (first compound 2.53 µM); 0.483 in the assay with XMD14-99 + Dasatinib (first compound 8 µM); 1.05 with XMD14-99 + Navitoclax (first compound 0.08 µM); 1.06 with XMD14-99 + Navitoclax (first compound 0.8 µM). Besides, the relative viability in the assay with XMD14-99 + Navitoclax (first compound 2.53 µM) was determined as 0.908; in the assay with XMD14-99 + Navitoclax (first compound 8 µM), 0.745; in the assay with XMD14-99 + Palbociclib (first compound 0.08 µM) it was 0.972; with XMD14-99 + Palbociclib (first compound 0.8 µM) it was 0.93; with XMD14-99 + Palbociclib (first compound 2.53 µM) it was 0.975; in the assay with XMD14-99 + Palbociclib (first compound 8 µM), 0.873. The relative viability with XMD14-99 + Trametinib (first compound 0.08 µM) was determined as 0.861; with XMD14-99 + Trametinib (first compound 0.8 µM), 0.863; with XMD14-99 + Trametinib (first compound 2.53 µM), 0.895; with XMD14-99 + Trametinib (first compound 8 µM) it was 0.829.

Take EBC-1: the relative viability with XMD14-99 + Navitoclax (first compound 0.08 µM) is 0.37; with XMD14-99 + Navitoclax (first compound 0.8 µM), 0.384; with XMD14-99 + Navitoclax (first compound 2.53 µM), 0.415; with XMD14-99 + Navitoclax (first compound 8 µM) it was 0.219; in the assay with XMD14-99 + Linsitinib (first compound 0.08 µM), 0.885; with XMD14-99 + Linsitinib (first compound 0.8 µM), 0.77. The relative viability with XMD14-99 + Linsitinib (first compound 2.53 µM) was 0.762; in the assay with XMD14-99 + Linsitinib (first compound 8 µM), 0.702.

Regarding EKVX, the relative viability was found to be 0.497 in the assay with XMD14-99 + Dasatinib (first compound 0.08 µM); 0.561 with XMD14-99 + Dasatinib (first compound 0.8 µM); 0.5 with XMD14-99 + Dasatinib (first compound 2.53 µM); 0.373 with XMD14-99 + Dasatinib (first compound 8 µM); 0.96 in the assay with XMD14-99 + Navitoclax (first compound 0.08 µM); 0.982 with XMD14-99 + Navitoclax (first compound 0.8 µM). Further, the relative viability with XMD14-99 + Navitoclax (first compound 2.53 µM) was 0.841; with XMD14-99 + Navitoclax (first compound 8 µM), 0.66; with XMD14-99 + Linsitinib (first compound 0.08 µM), 1.01; with XMD14-99 + Linsitinib (first compound 0.8 µM), 1.05; in the assay with XMD14-99 + Linsitinib (first compound 2.53 µM) it was 0.993; with XMD14-99 + Linsitinib (first compound 8 µM), 0.81. Besides, the relative viability with XMD14-99 + Palbociclib (first compound 0.08 µM) is 0.358; in the assay with XMD14-99 + Palbociclib (first compound 0.8 µM), 0.403; with XMD14-99 + Palbociclib (first compound 2.53 µM), 0.377; in the assay with XMD14-99 + Palbociclib (first compound 8 µM), 0.361; in the assay with XMD14-99 + Trametinib (first compound 0.08 µM), 0.321; in the assay with XMD14-99 + Trametinib (first compound 0.8 µM), 0.298. The relative viability in the assay with XMD14-99 + Trametinib (first compound 2.53 µM) was 0.382; with XMD14-99 + Trametinib (first compound 8 µM), 0.294.

Consider EMC-BAC-2, for which the relative viability with XMD14-99 + Dasatinib (first compound 0.08 µM) stood at 0.311; with XMD14-99 + Dasatinib (first compound 0.8 µM), 0.334; with XMD14-99 + Dasatinib (first compound 2.53 µM), 0.334; in the assay with XMD14-99 + Dasatinib (first compound 8 µM) it was 0.286; in the assay with XMD14-99 + Navitoclax (first compound 0.08 µM) it was 1.08; with XMD14-99 + Navitoclax (first compound 0.8 µM), 1.14. Moreover, the relative viability was determined as 1.06 in the assay with XMD14-99 + Navitoclax (first compound 2.53 µM); 0.901 with XMD14-99 + Navitoclax (first compound 8 µM); 0.804 with XMD14-99 + Linsitinib (first compound 0.08 µM); 0.81 with XMD14-99 + Linsitinib (first compound 0.8 µM); 0.775 with XMD14-99 + Linsitinib (first compound 2.53 µM); 0.676 in the assay with XMD14-99 + Linsitinib (first compound 8 µM). The relative viability with XMD14-99 + Palbociclib (first compound 0.08 µM) was 0.523; in the assay with XMD14-99 + Palbociclib (first compound 0.8 µM), 0.516; with XMD14-99 + Palbociclib (first compound 2.53 µM), 0.509; with XMD14-99 + Palbociclib (first compound 8 µM), 0.481; with XMD14-99 + Trametinib (first compound 0.08 µM) it was 0.832; in the assay with XMD14-99 + Trametinib (first compound 0.8 µM), 0.716. Further, the relative viability was found to be 0.744 in the assay with XMD14-99 + Trametinib (first compound 2.53 µM) and 0.668 with XMD14-99 + Trametinib (first compound 8 µM).

For the cell line EPLC-272H, the relative viability with XMD14-99 + Dasatinib (first compound 0.08 µM) is 0.323; with XMD14-99 + Dasatinib (first compound 0.8 µM), 0.325; in the assay with XMD14-99 + Dasatinib (first compound 2.53 µM), 0.402; in the assay with XMD14-99 + Dasatinib (first compound 8 µM), 0.392; with XMD14-99 + Navitoclax (first compound 0.08 µM), 1.14; in the assay with XMD14-99 + Navitoclax (first compound 0.8 µM) it was 1.1. In addition, the relative viability was found to be 1.29 with XMD14-99 + Navitoclax (first compound 2.53 µM); 1.11 with XMD14-99 + Navitoclax (first compound 8 µM); 1.14 with XMD14-99 + Linsitinib (first compound 0.08 µM); 1.21 with XMD14-99 + Linsitinib (first compound 0.8 µM); 1.4 with XMD14-99 + Linsitinib (first compound 2.53 µM); 1.02 with XMD14-99 + Linsitinib (first compound 8 µM). The relative viability was 0.306 with XMD14-99 + Palbociclib (first compound 0.08 µM); 0.299 in the assay with XMD14-99 + Palbociclib (first compound 0.8 µM); 0.324 with XMD14-99 + Palbociclib (first compound 2.53 µM); 0.347 with XMD14-99 + Palbociclib (first compound 8 µM); 0.274 with XMD14-99 + Trametinib (first compound 0.08 µM); 0.265 in the assay with XMD14-99 + Trametinib (first compound 0.8 µM). The relative viability in the assay with XMD14-99 + Trametinib (first compound 2.53 µM) was 0.287; with XMD14-99 + Trametinib (first compound 8 µM), 0.251.

H3255: the relative viability with XMD14-99 + Dasatinib (first compound 0.08 µM) was 0.437; with XMD14-99 + Dasatinib (first compound 0.8 µM), 0.496; with XMD14-99 + Dasatinib (first compound 2.53 µM), 0.347; in the assay with XMD14-99 + Dasatinib (first compound 8 µM), 0.249; in the assay with XMD14-99 + Navitoclax (first compound 0.08 µM), 0.542; in the assay with XMD14-99 + Navitoclax (first compound 0.8 µM), 0.654. For the same cell line, the relative viability was 0.493 with XMD14-99 + Navitoclax (first compound 2.53 µM); 0.32 in the assay with XMD14-99 + Navitoclax (first compound 8 µM); 0.999 in the assay with XMD14-99 + Linsitinib (first compound 0.08 µM); 0.871 in the assay with XMD14-99 + Linsitinib (first compound 0.8 µM); 0.765 with XMD14-99 + Linsitinib (first compound 2.53 µM); 0.694 with XMD14-99 + Linsitinib (first compound 8 µM). Also, the relative viability amounted to 0.317 in the assay with XMD14-99 + Palbociclib (first compound 0.08 µM); 0.303 in the assay with XMD14-99 + Palbociclib (first compound 0.8 µM); 0.296 in the assay with XMD14-99 + Palbociclib (first compound 2.53 µM); 0.295 in the assay with XMD14-99 + Palbociclib (first compound 8 µM); 0.563 with XMD14-99 + Trametinib (first compound 0.08 µM); 0.67 with XMD14-99 + Trametinib (first compound 0.8 µM). The values for the relative viability with XMD14-99 + Trametinib (first compound 2.53 µM) and in the assay with XMD14-99 + Trametinib (first compound 8 µM) were 0.54 and 0.488, respectively.
